Entries after “also recorded” stand apart in the source; their conditions may differ.
What was measured:
sTNFα production = assay: NB-monocyte co-culture, TNFα ELISA of supernatant; format: cell-based, human
Protocol: (§1) Monocytes were directly cultured with wild-type or TNF, TNFR1, TNFR2 KO NB cell lines in ULA plates for 24 hours. Activation of NF-kB in monocytes and NB was measured by flow cytometry and cytokine production measured by ELISA from co-culture supernatant. To evaluate the contact-dependence of monocyte activation by NB, monocytes were cultured in ULA plates with seven-day NB conditioned medium mixed 1:1 with complete monocyte medium for 24 hours and analyzed for IL-6 production. To assess the growth advantage of NB cultured with monocytes, NB-luc cell lines and monocytes were seeded in tissue culture-treated white 96-well plates (1:1 ratio) and cultured for four days. Luminescence was measured using a TECAN Spark plate reader (TECAN). To evaluate changes in proliferation, NB was pulsed for 10 minutes in CellTrace Violet (2 μM, Invitrogen) and seeded at 100,000 cells per well in a 12-well tissue culture-treated plate. Monocytes were added directly to the NB monolayer at a density of 100,000 per well and incubated for four days. CellTrace Violet expression was analyzed by flow cytometry.
(§2) Cytokines released by monocytes were detected within co-culture supernatants using the Human TNF-alpha Quantikine ELISA Kit (TNFα, R&D Systems) and the Human IL-6 Quantikine ELISA Kit (IL-6, R&D Systems) according to manufacturer's guidelines. ELISA plates were read using a TECAN Spark plate reader (TECAN). Global cytokine regulation was evaluated using a custom Luminex panel containing the following cytokines: CX3CL1, CXCL10, EGF, FGF-2, Flt3L, G-CSF, GM-CSF, IL-1α, IL-1β, IL-1Ra, IL-4, IL-6, IL-8, IL-10, IL-12 (p40), IL-12 (p′70), M-CSF, MCP-1, MCP-3, MDC, MIP-1α, MIP-1β, TGFα, TNFα, TNFβ, and VEGF-A (Human Cytokine Panel A, Millipore-Sigma).

monocyte IL-6 production = assay: NB-monocyte co-culture, IL-6 ELISA of supernatant; format: cell-based, human
Protocol: as §1, §2

[1] = tested on: NF-κB signaling in NB cells; assay: Intracellular IκBα in NB population of co-culture (PhosFlow flow cytometry); format: cell-based, human; conditions: TAPI 40 μM, 24 hours, vs vehicle control (FIG. 23C)
Protocol: as §1
(§3) To evaluate the expression of TNFα in NB and monocytes, cells were first stimulated with LPS (50 ng/mL) in the presence of GolgiStop (BD Biosciences) and fixed using CytoFix/Cytoperm buffer (BD Biosciences). Cells were then stained with TNFα-PE (BD Biosciences). To evaluate the expression of TNFR1 and TNFR2 on NB and monocytes, cells were stained with TNFR1-BV421 and TNFR2-APC (BD Biosciences) in FACS staining buffer containing 0.05% sodium azide to prevent receptor/antibody processing. To estimate changes in NF-kB expression, treated co-cultures were first stained with ZombieViolet (1 μL/test, Biolegend) to counterstain dead cells and APC-H7 CD45 and/or FITC-CD14 to label monocytes for 20 minutes at room temperature. […] All flow samples were run using an LSRII 5-laser flow cytometer (Texas Children's Hospital Cancer Center Flow Cytometry Core, Houston, Tex.) and analyzed using FlowJo Software (Treestar).

mTNFα = conditions: TAPI 40 μM, 24 hours, CD45+GD2− monocyte population
Protocol: (FIG. 13C) NB and monocyte co-cultures were treated with TNF converting enzyme inhibitor TAPI (40 μM) or vehicle control (Veh., 0.2% DMSO) for 24 hours. Surface expression of mTNFα within CD45+GD2− monocyte population was performed using flow cytometry. MFI as indicated. Data are from a representative of two experiments run in duplicate.

[2] = tested on: NF-κB signaling in monocytes; assay: Intracellular IκBα in monocyte population of co-culture (PhosFlow flow cytometry); format: cell-based, human; conditions: TAPI 40 μM, 24 hours, vs vehicle control
Protocol: as §1, §3

Compound | soluble (s)TNFα production from monocytes (sTNFα production; CHLA-255/monocyte co-culture, IKKi 0-1000 nM (FIG. 12D, FIG. 19)) | IL-6 production from monocytes (monocyte IL-6 production; CHLA-255/monocyte co-culture, IKKi 0-1000 nM (FIG. 12C, FIG. 19)) | IL-6 production in NB-monocyte co-cultures (monocyte IL-6 production; IKK inhibitor VII 125 nM, 24 hours, vs 0.1% DMSO (FIG. 1C)) | IκBα expression level in NB cells [1] | increase in surface staining for mTNFα (mTNFα) [%] | intracellular IκBα expression in monocytes [2] | reduction in sTNFα levels in co-culture supernatant (sTNFα production; TAPI 40 μM, 24 hours) [%] | IL-6 levels in co-culture supernatant (monocyte IL-6 production; TAPI 40 μM, 24 hours, vs vehicle control)
O=C(c1ccc(Nc2nccc(-c3cc4ccccc4s3)n2)cc1)N1CCC(N2CCCC2)CC1 [IKK inhibitor VII] | dose-dependent abrogation | dose-dependent abrogation | reversed IL-6 production | – | – | – | – | –
CC(C)C[C@H](CC(=O)NO)C(=O)N[C@@H](Cc1ccc2ccccc2c1)C(=O)N[C@@H](C)C(=O)NCCN [TAPI, TAPI-1] | – | – | – | significant increase in IκBα expression level | 40 | no effect | 90 | increased the activation of monocytes as measured by IL-6 levels; also recorded: significantly increased IL-6 levels

From US20230103554A1, “TNFa SIGNALING [sequence] TUMOR-PROMOTING INFLAMMATION THAT CAN BE TARGETED TO THERAPY” (Baylor College of Medicine, priority 2020, published 2023)
